Measured values from patent US9714213B2, “4-aminomethylbenzoic acid derivative” (TOA EIYO LTD., priority 2013, dated 2017).
Like-named read-outs stand apart in the source and are kept apart here.

What was measured:
rat ventral aorta = test: Blood vessel relaxation activity, phenylephrine-contracted rat ventral aorta ring specimen; conditions: relaxation of 1 μmol/L phenylephrine contraction; EC50 without ODQ / EC50 with 10 μmol/L ODQ
Procedure: A representative compound of the present invention was assayed for blood vessel relaxation activity according to the Test Example described below. In the assay, a rat (male, SD) was phlebotomized from the upper part of the heart under pentobarbital (30 mg/kg) anesthesia, and the ventral aorta was extracted. The connective tissue adhering around the blood vessel in the ventral aorta was removed in an ice-cooled Krebs-Henseleit solution (KH solution) (118 mmol/L sodium chloride, 4.7 mmol/L potassium chloride, 1.2 mmol/L magnesium sulfate, 1.2 mmol/L potassium dihydrogenphosphate, 25 mmol/L sodium hydrogen carbonate, 2.5 mmol/L calcium chloride and 10 mmol/L glucose, pH 7.4). Then, a ring specimen of 2 mm length was prepared, and fixed in 5 mL organ bath filled with the KH solution. The KH solution was maintained at 37° C., and a mixed gas of 95% O2 and 5% CO2 was ventilated. The specimen was stabilized with 1 g of the resting tension for 1 hour. In the meantime, the KH solution was exchanged twice. The tension of the specimen was recorded with a multichannel recorder through a pickup and an amplifier. After stabilization of the specimen, contraction was induced with 1 μmol/L phenylephrine (Phe), and cumulative administration of each compound (0.001, 0.01, 0.03, 0.1, 0.3, 1, 3, 10, 30, 100, 1000, 10000 nmol/L) was carried out. In the case of evaluation at the time of containing ODQ, 10 μmol/L ODQ was added 10 minutes before administration of Phe, and similar evaluation was performed.
EC50 value was calculated by Four-parameter Logistic Model with Assay Explorer (Accelrys, Inc.). Meanwhile, the solution of the test compound was prepared by dissolving the compound in DMSO to prepare solutions having the concentration of each test compound 1000 times higher than the final concentration.

human sGC = target: T1, human sGC (Homo sapiens, UniProt Q02153); test: Maximum effect of sGC activation (intracellular Ca2+, Fura2-AM) in CHO-K1 cells stably expressing human sGC and mouse CNGA2; assay type: cell-based; conditions: increase rate of sGC activity vs DMSO control, test compound 10 μmol/L
T1 construct: expressed in transfected cells; host or cells: CHO-K1 (Chinese hamster ovary) cells
T1 sequence (Q02153 1-619): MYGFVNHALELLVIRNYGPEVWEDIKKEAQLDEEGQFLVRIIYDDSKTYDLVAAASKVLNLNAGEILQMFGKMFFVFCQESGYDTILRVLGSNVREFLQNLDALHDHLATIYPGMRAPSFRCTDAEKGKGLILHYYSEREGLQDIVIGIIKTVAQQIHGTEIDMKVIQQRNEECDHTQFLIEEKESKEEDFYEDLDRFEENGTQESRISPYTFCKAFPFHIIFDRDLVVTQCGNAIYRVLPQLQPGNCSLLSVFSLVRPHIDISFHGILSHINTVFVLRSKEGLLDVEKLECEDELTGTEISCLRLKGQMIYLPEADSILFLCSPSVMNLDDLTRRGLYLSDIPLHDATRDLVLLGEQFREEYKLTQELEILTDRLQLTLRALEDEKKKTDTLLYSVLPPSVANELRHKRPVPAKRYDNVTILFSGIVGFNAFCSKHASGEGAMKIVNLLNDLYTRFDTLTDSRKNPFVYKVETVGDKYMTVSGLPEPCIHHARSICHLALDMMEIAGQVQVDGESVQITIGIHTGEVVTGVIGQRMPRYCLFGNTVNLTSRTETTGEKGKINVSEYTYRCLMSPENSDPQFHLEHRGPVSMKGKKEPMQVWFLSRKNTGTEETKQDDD
T1 sequence (Q02108 1-690 partner): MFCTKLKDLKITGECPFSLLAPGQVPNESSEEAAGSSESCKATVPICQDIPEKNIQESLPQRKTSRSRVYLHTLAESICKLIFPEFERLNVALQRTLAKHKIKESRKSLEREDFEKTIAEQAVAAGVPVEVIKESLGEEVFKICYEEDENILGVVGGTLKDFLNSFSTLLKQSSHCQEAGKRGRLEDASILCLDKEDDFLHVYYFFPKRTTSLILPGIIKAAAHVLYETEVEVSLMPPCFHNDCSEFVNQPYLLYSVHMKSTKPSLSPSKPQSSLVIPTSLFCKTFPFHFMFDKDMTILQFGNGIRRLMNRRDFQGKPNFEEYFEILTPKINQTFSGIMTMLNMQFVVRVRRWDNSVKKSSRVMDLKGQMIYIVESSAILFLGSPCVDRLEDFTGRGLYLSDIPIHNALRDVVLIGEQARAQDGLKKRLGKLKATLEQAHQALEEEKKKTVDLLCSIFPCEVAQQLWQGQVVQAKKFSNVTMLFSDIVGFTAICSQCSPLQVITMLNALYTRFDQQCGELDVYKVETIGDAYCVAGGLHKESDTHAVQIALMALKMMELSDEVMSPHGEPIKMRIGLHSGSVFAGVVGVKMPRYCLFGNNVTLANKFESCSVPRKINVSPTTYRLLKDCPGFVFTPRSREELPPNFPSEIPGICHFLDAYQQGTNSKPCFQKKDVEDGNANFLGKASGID
Procedure: For the assay, chinese hamster ovary cells (CHO-K1 cells) stably expressing both α and β subunits of human sGC and mouse cyclic nucleotide-gated channel (CNGA2) were used.
The CHO-K1 cells stably expressing human sGC and mouse CNGA2 was cultured at 37° C. on F-12 medium containing 10% (v/v) fetal bovine serum (FBS), penicillin (100 U/mL), streptomycin (100 μg/mL), G418 (250 μg/mL) and Zeocin (250 μg/mL). The cells were suspended in a culture medium, seeded on a 96 well plate, and then cultured at 37° C. for 24 hours. The cells were washed with Assay buffer 1 (140 mmol/L sodium chloride, 5 mmol/L potassium chloride, 0.5 mmol/L magnesium chloride, 0.01 mmol/L calcium chloride, 10 mmol/L glucose, 0.4 mmol/L magnesium sulfate, 10 mmol/L 4-(2-hydroxyethyl)piperazin-1-ylethanesulfonic acid and 125 μmol/L sulfinpyrazone, pH 7.4), and then added a solution containing Fura2-AM, a fluorescent Ca^2+ indicator, in Assay buffer 1 at […] concentration thereto as an indicator solution, and cultured at 37° C. for 60 minutes. The culture medium was removed, and the cells were washed with Assay buffer 1, and then added a solution containing the test compound thereto, and cultured at room temperature for 10 minutes. A plate was placed onto a fluorometer (FlexStation II, Molecular Devices), and the intracellular calcium concentration was determined as the ratio of fluorescent intensity, obtained from measurement using 340 nm and 380 nm as excitation wavelength and 510 nm as detection wavelength.
The solution of the test compound was prepared by dissolving each test compound in DMSO at 10 mmol/L, and then diluting the solution for the test concentration at 10 μmol/L with Assay buffer (140 mmol/L sodium chloride, 5 mmol/L potassium chloride, 0.5 mmol/L magnesium chloride, 1 mmol/L calcium chloride, 10 mmol/L glucose, 0.4 mmol/L magnesium sulfate, 10 mmol/L 4-(2-hydroxyethyl)piperazin-1-ylethanesulfonic acid, […] sulfinpyrazone, 100 μmol/L isobutyl methyl xanthine, and 10 μmol/L 1H-[1,2,4]-oxadiazol[4,3-a]quinoxaline-1-one (hereinafter, ODQ), pH 7.4). The evaluation in the absence of ODQ was performed similarly, except that ODQ was not added to Assay buffer 2. As a control solution, a DMSO solution was used instead of the test compound solution.
The activity of the test compound defined as the increase rate of the sGC activity (%) at the time of adding the solution of the test compound with respect to the sGC activity at the time of adding the control solution, was calculated by dividing the fluorescent intensity ratio at the time of adding the test compound by the fluorescent intensity ratio of the control solution, and subtracting the sGC activity at the time of adding the control solution (100%).
If sGC is activated in this assay, intracellular cGMP concentration increases and accordingly intracellular Ca^2+ concentration is increased by opening of CNGA2. Accordingly, sGC activation can be measured as the change of Ca^2+ concentration in the cell. […] Accordingly, it is possible to evaluate maximum sGC activation effect including heme-dependent activation in the absence of ODQ, and also possible to evaluate heme independent sGC activation effect in the presence of ODQ.

[1] = 10 μmol/L ODQ present, read-out: Emax (%) ODQ+ (Heme-independent)
[2] = absence of ODQ, read-out: Emax (%) ODQ− (Heme-dependent)

SMILES | EC50 Ratio (ODQ−/ODQ+) (rat ventral aorta) | Emax at 10 µM (human sGC; [1]) [%] | Emax at 10 µM (human sGC; [2]) [%]
CC(C)(CCN(Cc1ccc(C(=O)O)cc1)CC(OCc1ccc(CCc2ccccc2)cc1)c1ccccc1)CC(=O)O (stereo not shown) [Example 18] | – | 129 | 96.2
O=C(O)CCCCN(CCc1ccccc1OCc1ccc(CCc2ccccc2)cc1)Cc1ccc(C(=O)O)cc1 [Cinaciguat, reference compound] | 12.4 | – | –
O=C(O)CCCCCN(Cc1ccc(C(=O)O)cc1)CC(OCc1ccc(CCc2ccccc2)cc1)c1ccccc1 (stereo not shown) [Example 15, 4-{[N-(5-Carboxypentyl)-N-[2-[4-(2-phenylethyl)benzyloxy]-2-phenylethyl]amino]methyl}benzoic acid] | – | 87.7 | 89.1
N#Cc1cccc([C@H](CN(CCCCC(=O)O)Cc2ccc(C(=O)O)cc2)OCc2ccc(CCc3ccccc3)cc2)c1 [Example 30, (−)-4-{[N-(4-Carboxybutyl)-N-[(2R)-2-(3-cyanophenyl)-2-[4-(2-phenylethyl)benzyloxy]ethyl]amino]methyl}benzoic acid] | – | 129 | 83.4
O=C(O)CCCCN(Cc1ccc(C(=O)O)cc1)CC(OCc1ccc(CCc2ccccc2)s1)c1cccc(Cl)c1 (stereo not shown) [Example 24, 4-{[N-(4-Carboxybutyl)-N-[2-(3-chlorophenyl)-2-[5-(2-phenylethyl)thiophen-2-ylmethoxy]ethyl]amino]methyl}benzoic acid] | – | 132 | 150
O=C(O)CCCCN(Cc1ccc(C(=O)O)cc1)CC(OCc1ccc(CCc2ccccc2)cc1)c1cccc(Cl)c1 (stereo not shown) [Example 22, 4-{[N-(4-Carboxybutyl)-N-[2-(3-chlorophenyl)-2-[4-(2-phenylethyl)benzyloxy]ethyl]amino]methyl}benzoic acid] | – | 115 | 106

Second part, the compound after the results:

EC50 Ratio (ODQ−/ODQ+) (rat ventral aorta) | Emax at 10 µM (human sGC; [1]) [%] | Emax at 10 µM (human sGC; [2]) [%] | SMILES
3.26 | 102 | 130 | O=C(O)CCCCN(Cc1ccc(C(=O)O)cc1)CC(OCc1ccc(CCc2ccccc2)cc1)c1ccccc1 (stereo not shown) [Example 2, 4-{[N-(4-Carboxybutyl)-N-[2-[4-(2-phenylethyl)benzyloxy]-2-phenylethyl]amino]methyl}benzoic acid]
– | 142 | 148 | O=C(O)CCCCN(Cc1ccc(C(=O)O)cc1)C[C@H](OCc1ccc(CCC2CCCC2)cc1)c1ccccc1 [Example 39, (−)-4-{[N-(4-Carboxybutyl)-N-[(2R)-2-[4-(2-cyclopentylethyl)benzyloxy]-2-phenylethyl]amino]methyl}benzoic acid]
– | 141 | 103 | CC(C)(C)c1cccc(COC(CN(CCCCC(=O)O)Cc2ccc(C(=O)O)cc2)c2ccccc2)c1 (stereo not shown) [Example 10, 4-{[N-[2-(3-tert-Butylbenzyloxy)-2-phenylethyl]-N-(4-carboxybutyl)amino]methyl}benzoic acid]
– | 125 | 82.3 | CC(C)(C)c1cccc(CO[C@@H](CN(CCCCC(=O)O)Cc2ccc(C(=O)O)cc2)c2cccc(Cl)c2)c1 [Example 34, (−)-4-{[N-[(2R)-2-(3-tert-Butylbenzyloxy)-2-(3-chlorophenyl)ethyl]-N-(4-carboxybutyl)amino]methyl}benzoic acid]
– | 108 | 161 | CC(C)(C)c1cc(CO[C@@H](CN(CCCCC(=O)O)Cc2ccc(C(=O)O)cc2)c2ccccc2)cc(C(C)(C)C)c1 [Example 46, (−)-4-{[N-(4-Carboxybutyl)-N-[(2R)-2-(3,5-di-tert-butylbenzyloxy)-2-phenylethyl]amino]methyl}benzoic acid]
– | 88.9 | 110 | O=C(O)CCCCN(Cc1ccc(C(=O)O)cc1)CC(OCc1cccc(CCc2ccccc2)c1)c1ccccc1 (stereo not shown) [Example 60, 4-{[N-(4-Carboxybutyl)-N-[2-[3-(2-phenylethyl)benzyloxy]-2-phenylethyl]amino]methyl}benzoic acid]
– | 124 | 108 | O=C(O)CCCCN(Cc1ccc(C(=O)O)cc1)C[C@H](OCc1ccc(CCc2ccccc2)s1)c1ccccc1 [Example 43, (−)-4-{[N-(4-Carboxybutyl)-N-[(2R)-2-[5-(2-phenylethyl)thiophen-2-ylmethoxy]-2-phenylethyl]amino]methyl}benzoic acid]
– | 120 | 127 | O=C(O)CCCCN(Cc1ccc(C(=O)O)cc1)C[C@H](OCc1ccc(CCc2ccc(Cl)cc2)cc1)c1ccccc1 [Example 40, (−)-4-{[N-(4-Carboxybutyl)-N-[(2R)-2-[4-[2-(4-chlorophenyl)ethyl]benzyloxy]-2-phenylethyl]amino]methyl}benzoic acid]
